Where a name gives a salt, the structure may show the parent alone. Marks after values point to notes of the source that are not given here.
Assays:
[1] = molecular target: EAAT1 (endogenous, MDA-MB-468 cells) (Homo sapiens, UniProt P43003); experiment: Impedance-based phenotypic assay on MDA-MB-468 cells; type: cell-based
Experimental: MDA-MB-468 cells were cultured as adherent cells in DMEM containing 10% (v/v) FCS, 2 mM Glutamax, 100 IU/ml penicillin and 100 μg/ml streptomycin (culture medium) at 37°C and 5% CO2. Cells were split twice weekly at 1:3–1:4 ratios in 10 cm culture dishes.
In short, cells are cultured in medium on gold-plated electrodes in microwell E-plates.
Assays were performed at 37°C and 5% CO2 in 96-well PET E-plates in a total volume of 100 µl per well. Prior to cell seeding, the baseline impedance (Z0) was measured in the recording station in 40 µl (two compound additions) or 45 µl (one compound addition) medium in the presence (+) or absence (−) of 1 μg/ml dox. All compounds were diluted in phosphate-buffered saline (PBS) and added in 5 µl per addition using a VIAFLO 96 handheld electronic 96 channel pipette (INTEGRA Biosciences, Tokyo, Japan). When DMSO was used as a solvent for a compound, the final amount of DMSO was kept at 0.1% per well and was included in the vehicle (PBS/DMSO). All conditions were tested at two technical replicates per plate.
Experimental data was recorded using RTCA Software v2.0 or v2.1.1 (ACEA Biosciences). In the RTCA Software CI values were normalized to the time point prior to substrate/agonist stimulation resulting in normalized Cell Index (nCI) values. The nCI data were exported and subsequent analyses and data visualizations were done using GraphPad Prism v9 (GraphPad Software, San Diego, CA, United States). In all experiments, nCI values of vehicle-only conditions were subtracted from all other conditions to correct for vehicle-induced, substrate-independent effects. […] The potency values of substrates and inhibitory potencies of EAAT inhibitors were determined by fitting the net AUC data to a sigmoidal concentration-effect curve with a variable slope.

[2] = molecular target: T1, EAAT4 (JumpIn-EAAT4 cells) (Homo sapiens, UniProt P48664); experiment: Impedance-based phenotypic assay on JumpIn-EAAT4 cells; type: cell-based; settings: JumpIn-EAAT4, 1 mM L-glu, p = 0.093
T1 construct: expressed in transfected cells; host or cells: Jump In T-REx HEK 293
T1 sequence (P48664 1-564): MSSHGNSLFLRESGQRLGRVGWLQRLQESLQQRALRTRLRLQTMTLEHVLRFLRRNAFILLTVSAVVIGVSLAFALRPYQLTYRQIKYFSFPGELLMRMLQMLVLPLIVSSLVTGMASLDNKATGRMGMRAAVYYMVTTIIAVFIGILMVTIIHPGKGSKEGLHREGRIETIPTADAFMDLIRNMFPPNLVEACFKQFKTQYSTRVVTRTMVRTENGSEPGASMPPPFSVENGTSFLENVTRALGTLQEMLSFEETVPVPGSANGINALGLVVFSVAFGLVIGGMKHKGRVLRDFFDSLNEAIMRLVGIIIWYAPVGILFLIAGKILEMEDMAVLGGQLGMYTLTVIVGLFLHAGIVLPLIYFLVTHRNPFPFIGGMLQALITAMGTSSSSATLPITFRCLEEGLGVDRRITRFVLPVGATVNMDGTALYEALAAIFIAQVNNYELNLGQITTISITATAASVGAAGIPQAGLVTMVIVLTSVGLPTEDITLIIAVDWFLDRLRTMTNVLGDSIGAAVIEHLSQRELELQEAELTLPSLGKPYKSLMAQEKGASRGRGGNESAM
Experimental: Label-free whole-cell assays, based on cell-induced changes in impedance, were performed using the xCELLigence real-time cell analyzer (RTCA) system (ACEA Biosciences, San Diego, CA, United States) as described previously ([Vlachodimou et al., 2019]; [Sijben et al., 2021a], [2021b]). In short, cells are cultured in medium on gold-plated electrodes in microwell E-plates. Per well impedance is continuously measured at 10 kHz and is converted to the unitless parameter Cell Index (CI) by the following formula: CI=(Zi−Z0)Ω/15Ω where Zi is the impedance at any given time point and Z0 is the baseline impedance measured at the start of each experiment ([Kho et al., 2015]).
Assays were performed at 37°C and 5% CO2 in 96-well PET E-plates in a total volume of 100 µl per well. Prior to cell seeding, the baseline impedance (Z0) was measured in the recording station in 40 µl (two compound additions) or 45 µl (one compound addition) medium in the presence (+) or absence (−) of 1 μg/ml dox. […]
On the day of the experiment, JumpIn-EAAT cells grown to 70–80% confluence were trypsinized (0.25% trypsin in PBS/EDTA), counted and seeded in the E-plate in a volume of 50 μl at 60,000 cells/well. […] Cell growth was recorded overnight for 22 h. […] After stimulation the impedance was measured for at least 2 h. […]
Experimental data was recorded using RTCA Software v2.0 or v2.1.1 (ACEA Biosciences). […]

Chain of EAAT1 (endogenous, MDA-MB-468 cells) (P43003 whole entry): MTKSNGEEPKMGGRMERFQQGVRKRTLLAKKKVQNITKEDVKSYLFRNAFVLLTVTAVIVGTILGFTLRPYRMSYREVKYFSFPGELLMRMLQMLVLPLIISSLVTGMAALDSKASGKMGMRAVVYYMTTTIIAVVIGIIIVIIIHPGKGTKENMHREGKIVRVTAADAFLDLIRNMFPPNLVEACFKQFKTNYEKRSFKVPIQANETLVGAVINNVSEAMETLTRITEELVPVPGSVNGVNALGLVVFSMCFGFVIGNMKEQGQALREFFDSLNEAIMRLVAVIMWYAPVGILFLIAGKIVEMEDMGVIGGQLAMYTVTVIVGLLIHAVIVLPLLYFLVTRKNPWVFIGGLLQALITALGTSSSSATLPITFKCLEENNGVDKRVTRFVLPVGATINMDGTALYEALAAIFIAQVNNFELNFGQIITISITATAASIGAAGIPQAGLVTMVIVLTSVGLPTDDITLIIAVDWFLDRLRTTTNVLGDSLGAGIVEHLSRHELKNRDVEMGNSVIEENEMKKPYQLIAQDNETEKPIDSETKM

N[C@@H](CCC(=O)O)C(=O)O [L-glutamate, L-glutamic acid monosodium salt monohydrate]
Substrate pEC50 ± SEM [1]: 4.0 ± 0.2 ^b
Response in dox-induced vs non-induced cells [2]: not significant
